In the supplement of paper PMC11061612:

Assays:
[1] = test system: HPAF-II (Pancreatic Carcinoma); assay: Bliss excess, mean over the matrix (fraction); higher = more synergy
Procedure, shortened: (§1)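 Cell lines grown in DMEM/F12 or RPMI with 10% FBS were plated in 1536-well plates and held 24 hours at 37°C, 5% CO2 before 72 hours of exposure to two-drug dose matrices, with DMSO typically at 0.2%. CellTiter-Glo 2.0 luminescence gave viability, which was converted to inhibition. Vehicle wells were set to 0 and blank wells to 1. Combination Emax is the second-highest inhibition in the matrix, and Bliss excess is the observed combination effect minus the expected EA + EB − EA·EB, where EA and EB are the single-agent effects.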

[2] = test system: BHT-101 (Thyroid Gland Carcinoma); assay: combination Emax (second highest fraction inhibited in the dose matrix, 72 h); higher = more inhibition; extreme values may be limits of the assay
Procedure, shortened: as §1

[3] = test system: HPAF-II (Pancreatic Carcinoma); assay: as above
Procedure, shortened: as §1

[4] = test system: HT-1080 (Other Solid Carcinomas); assay: as above
Procedure, shortened: as §1

[5] = test system: LS-1034 (Colorectal Carcinoma); assay: as above
Procedure, shortened: as §1

[6] = test system: MM1S (Plasma Cell Myeloma); assay: as above
Procedure, shortened: as §1

[7] = test system: NCI-H1341 (Small Cell Lung Carcinoma); assay: as above
Procedure, shortened: as §1

NCI-H226 (Mesothelioma) = assay: as above
Procedure, shortened: as §1

[8] = test system: NCI-H3118 (Head and Neck Carcinoma); assay: as above
Procedure, shortened: as §1

[9] = test system: NCI-H596 (Other Solid Carcinomas); assay: as above
Procedure, shortened: as §1

[10] = test system: SAT (Head and Neck Carcinoma); assay: as above
Procedure, shortened: as §1

[11] = test system: SKG-IIIa (Cervical Carcinoma); assay: as above
Procedure, shortened: as §1

[12] = test system: SNU-423 (Hepatocellular Carcinoma); assay: as above
Procedure, shortened: as §1

[13] = test system: SiHa (Cervical Carcinoma); assay: as above
Procedure, shortened: as §1

[14] = test system: TUR (Acute Myeloid Leukemia); assay: as above
Procedure, shortened: as §1

[15] = test system: ZR-75-30 (Breast Carcinoma); assay: as above
Procedure, shortened: as §1
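For Bliss excess, mean over the matrix in this document: after 72 h of two-drug dosing.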

| Structure (SMILES) | Bliss excess [1] | combination Emax [2] | combination Emax [3] | combination Emax [4] | combination Emax [5] | combination Emax [6] | combination Emax [7] | combination Emax (NCI-H226 (Mesothelioma)) | combination Emax [8] | combination Emax [9] | combination Emax [10] | combination Emax [11] | combination Emax [12] | combination Emax [13] | combination Emax [14] | combination Emax [15] |
| --- | --- | --- | --- | --- | --- | --- | --- | --- | --- | --- | --- | --- | --- | --- | --- | --- |
| COc1nnc2ccc(N3CCC(c4ccc(OCCN5CCN(C)C(=O)[C@H]5C)cc4)CC3)nn12 [AZD5153] + Cn1cnc2c(F)c(Nc3ccc(Br)cc3Cl)c(C(=O)NOCCO)cc21 [Selumetinib] (first compound max 1 µM, 7x7, partner max 10 µM) | 0.0634 | 0.966 | 0.868 | 0.596 | 0.814 | 0.947 | 0.559 | 0.377 | 0.63 | 0.725 | 0.843 | 0.537 | 0.424 | 0.628 | 0.744 | 0.305 |
| CC(=O)c1c(C)c2cnc(Nc3ccc(N4CCNCC4)cn3)nc2n(C2CCCC2)c1=O [Palbociclib] + Cn1cnc2c(F)c(Nc3ccc(Br)cc3Cl)c(C(=O)NOCCO)cc21 [Selumetinib] (first compound max 10 µM, 7x7, partner max 10 µM) | -0.0337 | 0.813 | 0.629 | 0.361 | 0.817 | 0.253 | 0.254 | 0.232 | 0.603 | 0.306 | 0.549 | 0.188 | 0.241 | 0.16 | 0.379 | 0 |
| NC1(C(=O)N[C@@H](CCO)c2ccc(Cl)cc2)CCN(c2ncnc3[nH]ccc23)CC1 [Capivasertib] + CCN(CCO)CCCOc1ccc2c(Nc3cc(CC(=O)Nc4cccc(F)c4)[nH]n3)ncnc2c1 [AZD2811] (first compound max 10 µM, 7x7, partner max 1 µM) | 0.0052 | 0.353 | 0.218 | 0.256 | 0.302 | 0.998 | 0.655 | 0.311 | 0.241 | 0.564 | 0.502 | 0.374 | 0.571 | 0.299 | 0.912 | 0.442 |
| NC1(C(=O)N[C@@H](CCO)c2ccc(Cl)cc2)CCN(c2ncnc3[nH]ccc23)CC1 [Capivasertib] + COc1nnc2ccc(N3CCC(c4ccc(OCCN5CCN(C)C(=O)[C@H]5C)cc4)CC3)nn12 [AZD5153] (first compound max 10 µM, 7x7, partner max 1 µM) | 0.0188 | 0.759 | 0.389 | 0.388 | 0.499 | 1 | 0.851 | 0.402 | 0.537 | 0.639 | 0.811 | 0.43 | 0.513 | 0.644 | 1 | 0.353 |
| C=CCn1c(=O)c2cnc(Nc3ccc(N4CCN(C)CC4)cc3)nc2n1-c1cccc(C(C)(C)O)n1 [AZD1775] + C1CN(CCC1(C(=O)N[C@@H](CCO)C2=CC=C(C=C2)Cl)N)C3=NC=NC4=C3C=CN4 [Capivasertib] (first compound max 3 µM, partner max 3 µM) | -0.096 | 0.631 | 0.605 | 0.561 | 0.763 | 1 | 0.923 | 0.45 | 0.947 | 0.708 | 0.563 | 0.574 | 0.659 | 0.505 | 0.955 | 0.441 |
| Cn1cnc2c(F)c(Nc3ccc(Br)cc3Cl)c(C(=O)NOCCO)cc21 [Selumetinib] + CCN(CCO)CCCOc1ccc2c(Nc3cc(CC(=O)Nc4cccc(F)c4)[nH]n3)ncnc2c1 [AZD2811] (first compound max 10 µM, 7x7, partner max 1 µM) | 0.0129 | 0.846 | 0.682 | 0.387 | 0.671 | 0.283 | 0.271 | 0.216 | 0.537 | 0.23 | 0.604 | 0.321 | 0.264 | 0.22 | 0.349 | 0.111 |
| C[C@@H](c1ccc2nccn2c1)n1nnc2ncc(-c3cnn(C)c3)nc21 [Savolitinib] + Cc1c2c(nn1C)CSCc1cc(n(C)n1)CSc1cc(c3ccccc3c1)OCCCc1c(C(=O)O)n(C)c3c-2c(Cl)ccc13 [AZD5991] (first compound max 1 µM, 7x7, partner max 1 µM) | -0.0163 | 0.133 | 0.125 | 0.117 | 0.128 | 0.225 | 0.488 | 0.131 | 0.225 | 0.197 | 0.427 | 0.176 | 0.2 | 0.167 | 0.347 | 0.248 |
| COc1nnc2ccc(N3CCC(c4ccc(OCCN5CCN(C)C(=O)[C@H]5C)cc4)CC3)nn12 [AZD5153] + Cc1c2c(nn1C)CSCc1cc(n(C)n1)CSc1cc(c3ccccc3c1)OCCCc1c(C(=O)O)n(C)c3c-2c(Cl)ccc13 [AZD5991] (first compound max 1 µM, 7x7, partner max 1 µM) | -0.0124 | 0.84 | 0.35 | 0.378 | 0.491 | 1 | 0.897 | 0.407 | 0.678 | 0.79 | 0.914 | 0.471 | 0.431 | 0.666 | 0.998 | 0.29 |
| Cc1nc(Nc2ncc(C(=O)Nc3c(C)cccc3Cl)s2)cc(N2CCN(CCO)CC2)n1 [Dasatinib] + CC(=O)Nc1cccc(-n2c(=O)n(C3CC3)c(=O)c3c(Nc4ccc(I)cc4F)n(C)c(=O)c(C)c32)c1 [Trametinib] (first compound max 2 µM, 7x7, partner max 1 µM) | 0.0843 | 0.998 | 0.928 | 0.61 | 0.861 | 0.227 | 0.425 | 0.458 | 0.811 | 0.607 | 0.826 | 0.5 | 0.832 | 0.329 | 0.308 | 0.0302 |
| COc1nnc2ccc(N3CCC(c4ccc(OCCN5CCN(C)C(=O)[C@H]5C)cc4)CC3)nn12 [AZD5153] + CC1(C)CCC(CN2CCN(c3ccc(C(=O)NS(=O)(=O)c4ccc(NCC5CCOCC5)c([N+](=O)[O-])c4)c(Oc4cnc5[nH]ccc5c4)c3)CC2)=C(c2ccc(Cl)cc2)C1 [Venetoclax] (first compound max 1 µM, 7x7, partner max 1 µM) | -0.0057 | 0.718 | 0.365 | 0.322 | 0.538 | 0.611 | 0.688 | 0.438 | 0.568 | 0.751 | 0.723 | 0.42 | 0.41 | 0.505 | 0.458 | 0.235 |
